Measurements: publication PMC6825211 (Nature Communications, 2019)
Several values for one entry are separate records, joined by “and”; a condition that tells them apart may be missing. Identical values can stand only once.

System: MLD–STZ C57BL/6J mice
Test: MLD–STZ model: random fed blood glucose
Type: in vivo, mouse
Set-up: AUC glycemia: unit not given here
Experimental: C57Bl/6J mice were injected with 40 mg/kg streptozotocin or citrate buffer for 5 consecutive days. […] In d, basal glucose values were normalized to 100%. e Insulin secretion measured from retro-orbital blood draw during an ipGTT measured before (0 min) and 15 min after glucose injection; data are expressed as the ratio of secreted insulin at 15 min/0 min (stimulatory index). f The ratio of secreted insulin and glucose is calculated at fed state. g–i Mice were killed at day 35. g β-cell mass (given as percentage of the whole pancreatic section from ten sections spanning the width of the pancreas) and quantitative analyses from triple staining for h TUNEL or i Ki67, insulin, and DAPI expressed as percentage of TUNEL- or Ki67-positive β-cells ±SEM. An average number of 2331 (h), or 26369 (i) β-cells were counted. n = 9 mice/group for (a); n = 4–12 for (b); n = 5–15 for (c) and (d); n = 12–19 for (e); n = 8–14 for (f); n = 4–9 for (g); n = 4–11 for (h); and n = 6–11 mice/groupfor (i); all from three independent experiments).

CCOc1cc2ncc(C#N)c(Nc3ccc(OCc4ccccn4)c(Cl)c3)c2cc1NC(=O)/C=C/CN(C)C [neratinib]
glycemia in nondiabetic control mice (5 mg/kg i.p. daily): no effect on glycemia | glucose levels in STZ mice (5 mg/kg i.p. daily, 35 days): lower glucose levels during the entire 35 days | glycemia (NeraCtr (no STZ, neratinib 5 mg/kg i.p. daily), day 0, individual mice): 136 mg/dL and 120 mg/dL and 165 mg/dL and 122 mg/dL and 87 mg/dL and 80 mg/dL and 78 mg/dL and 130 mg/dL | AUC glycemia (NeraCtr, Mean): 4215.5 | glycemia (NeraCtr, day 3, individual mice): 139 mg/dL and 103 mg/dL and 119 mg/dL and 117 mg/dL and 104 mg/dL and 116 mg/dL and 114 mg/dL and 149 mg/dL and 112 mg/dL | glycemia (NeraCtr, day 7, individual mice): 100 mg/dL and 134 mg/dL and 130 mg/dL and 92 mg/dL and 120 mg/dL and 106 mg/dL and 114 mg/dL and 125 mg/dL and 111 mg/dL | glycemia (NeraCtr, day 9, individual mice): 108 mg/dL and 93 mg/dL and 122 mg/dL and 89 mg/dL and 96 mg/dL and 109 mg/dL and 111 mg/dL and 90 mg/dL | glycemia (NeraCtr, day 12, individual mice): 138 mg/dL and 112 mg/dL and 125 mg/dL and 100 mg/dL and 117 mg/dL and 105 mg/dL and 86 mg/dL and 133 mg/dL | glycemia (NeraCtr, day 16, individual mice): 104 mg/dL and 92 mg/dL and 112 mg/dL and 106 mg/dL and 96 mg/dL and 88 mg/dL and 118 mg/dL and 93 mg/dL | glycemia (NeraCtr, day 22, individual mice): 115 mg/dL and 102 mg/dL and 145 mg/dL and 144 mg/dL and 132 mg/dL and 113 mg/dL and 110 mg/dL and 103 mg/dL and 146 mg/dL | glycemia (NeraCtr, day 28, individual mice): 109 mg/dL and 137 mg/dL and 141 mg/dL and 103 mg/dL and 110 mg/dL and 127 mg/dL and 112 mg/dL and 156 mg/dL and 106 mg/dL | glycemia (NeraCtr, day 36, individual mice): 156 mg/dL and 132 mg/dL and 145 mg/dL and 146 mg/dL and 111 mg/dL and 114 mg/dL and 120 mg/dL and 109 mg/dL | AUC glycemia (NeraCtr, individual mice): 4340.5 and 4217 and 4748 and 4310 and 3997 and 3944.5 and 3991 and 4247 and 4144.5 | glycemia (NeraSTZ (STZ + neratinib 5 mg/kg i.p. daily), day 0, individual mice): 112 mg/dL and 125 mg/dL and 148 mg/dL | AUC glycemia (NeraSTZ, Mean): 7519.28 | glycemia (NeraSTZ, day 3, individual mice): 94 mg/dL and 102 mg/dL and 117 mg/dL | glycemia (NeraSTZ, day 7, individual mice): 117 mg/dL and 131 mg/dL and 93 mg/dL | glycemia (NeraSTZ, day 9, individual mice): 179 mg/dL and 138 mg/dL and 134 mg/dL | glycemia (NeraSTZ, day 12, individual mice): 250 mg/dL and 310 mg/dL and 180 mg/dL | glycemia (NeraSTZ, day 16, individual mice): 173 mg/dL and 303 mg/dL | glycemia (NeraSTZ, day 22, individual mice): 209 mg/dL and 344 mg/dL | glycemia (NeraSTZ, day 28, individual mice): 213 mg/dL and 229 mg/dL | glycemia (NeraSTZ, day 36, individual mice): 214 mg/dL and 337 mg/dL and 230 mg/dL | AUC glycemia (NeraSTZ, individual mice): 6636.5 and 8897.5 and 6783.5 and 7009 and 8879.5 and 5194.5 and 8003.5 and 8416 and 7853.5
